Assay results from US20230000870A1, “METHODS OF TREATING CANCER IN BIOMARKER-IDENTIFIED PATIENTS WITH INHIBITORS OF CYCLIN-DEPENDENT KINASE 7 (CDK7)” (Syros Pharmaceuticals, Inc., priority 2019, published 2023).

Experiments:
CDK9/Cyclin T1 complex = CDK9/Cyclin T1 complex (Homo sapiens, UniProt P50750); experiment: CDK9 kinase inhibition assay (Caliper/LabChip EZ Reader); type: biochemical; details: CDK9/Cyclin T1 8 nM, ATP 2 mM, 15 min at 27° C.
Procedure, shortened: (§1)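 Incubation times were set for ~20% (±5%) peptide phosphorylation by uninhibited enzyme: CDK7 35 min, CDK2 35 min (0.5 nM complex, 2 μM 5-FAM-CDK7tide, 2 mM MgCl2), CDK12 3 hr (50 nM, 2 μM 5-FAM-CDK9tide, 2 mM MgCl2), CDK9 15 min (8 nM, 2 μM 5-FAM-CDK9tide, 10 mM MgCl2). Read-out on LabChip EZ Reader, 27° C.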

CDK2/Cyclin E1 complex = CDK2/Cyclin E1 complex (Homo sapiens, UniProt P24941); experiment: CDK2 kinase inhibition assay (Caliper/LabChip EZ Reader); type: biochemical; details: CDK2/Cyclin E1 0.5 nM, ATP 2 mM, 35 min at 27° C.
Procedure, shortened: as §1

[1] = biological target: CDK7/Cyclin H/MAT1 complex (Homo sapiens, UniProt P50613); experiment: CDK7 kinase inhibition assay (Caliper/LabChip EZ Reader); type: biochemical; details: CDK7/Cyclin H/MAT1 6 nM, ATP 2 mM, 35 min at 27° C.
CDK7/Cyclin H/MAT1 complex, sequence (P50613 whole entry): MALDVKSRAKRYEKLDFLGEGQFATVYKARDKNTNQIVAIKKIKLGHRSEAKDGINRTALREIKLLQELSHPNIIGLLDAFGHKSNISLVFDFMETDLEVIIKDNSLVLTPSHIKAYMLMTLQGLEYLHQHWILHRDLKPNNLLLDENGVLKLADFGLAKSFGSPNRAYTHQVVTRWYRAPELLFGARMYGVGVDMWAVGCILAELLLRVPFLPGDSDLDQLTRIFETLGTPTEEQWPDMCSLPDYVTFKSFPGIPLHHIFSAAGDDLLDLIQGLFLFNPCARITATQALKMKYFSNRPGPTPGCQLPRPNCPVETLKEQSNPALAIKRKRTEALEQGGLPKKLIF
CDK7/Cyclin H/MAT1 complex, sequence (P51946 whole entry partner): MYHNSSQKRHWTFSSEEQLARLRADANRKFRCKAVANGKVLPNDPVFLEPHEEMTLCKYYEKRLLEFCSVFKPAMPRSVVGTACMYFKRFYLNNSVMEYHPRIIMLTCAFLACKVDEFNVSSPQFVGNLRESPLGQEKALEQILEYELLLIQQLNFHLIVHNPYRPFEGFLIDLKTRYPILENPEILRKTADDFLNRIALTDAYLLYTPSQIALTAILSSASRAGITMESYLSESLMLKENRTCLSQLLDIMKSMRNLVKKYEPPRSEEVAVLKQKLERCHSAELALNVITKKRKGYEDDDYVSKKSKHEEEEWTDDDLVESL
CDK7/Cyclin H/MAT1 complex, sequence (P51948 whole entry partner): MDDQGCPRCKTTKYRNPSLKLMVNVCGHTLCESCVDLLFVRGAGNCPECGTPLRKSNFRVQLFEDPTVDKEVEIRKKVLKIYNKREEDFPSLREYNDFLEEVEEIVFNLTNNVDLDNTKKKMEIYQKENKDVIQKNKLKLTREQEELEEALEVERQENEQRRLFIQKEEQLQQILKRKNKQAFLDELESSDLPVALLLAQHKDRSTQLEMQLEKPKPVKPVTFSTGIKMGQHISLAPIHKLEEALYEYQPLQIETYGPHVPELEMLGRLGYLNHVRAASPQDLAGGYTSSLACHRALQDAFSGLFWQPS
Procedure, shortened: as §1

HCC70 cells = experiment: Inhibition of proliferation of HCC70 cells (CyQUANT Direct, 72 hour); type: cell-based, human; details: read-out: Inhibition of Proliferation of HCC70 Cells (calculated IC50)
Procedure, shortened: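 Anti-proliferative effect measured with the CyQUANT Direct kit after a 72 h exposure at 37 °C, 5% CO2. Compounds were tested at 0.5 log serial dilutions spanning 4–[…] on HCC70 triple-negative breast cancer cells cultured in RPMI-1640 with 10% FBS.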

[2] = biological target: T1, CDK12 (aa686-1082)/Cyclin K complex (Homo sapiens, UniProt Q9NYV4); experiment: CDK12 kinase inhibition assay (Caliper/LabChip EZ Reader); type: biochemical; details: CDK12 (aa686-1082)/Cyclin K 50 nM, ATP 2 mM, 3 hr at 27° C.
T1 construct: CDK12 (aa686-1082)/Cyclin K complex
T1 sequence (Q9NYV4 686-1082): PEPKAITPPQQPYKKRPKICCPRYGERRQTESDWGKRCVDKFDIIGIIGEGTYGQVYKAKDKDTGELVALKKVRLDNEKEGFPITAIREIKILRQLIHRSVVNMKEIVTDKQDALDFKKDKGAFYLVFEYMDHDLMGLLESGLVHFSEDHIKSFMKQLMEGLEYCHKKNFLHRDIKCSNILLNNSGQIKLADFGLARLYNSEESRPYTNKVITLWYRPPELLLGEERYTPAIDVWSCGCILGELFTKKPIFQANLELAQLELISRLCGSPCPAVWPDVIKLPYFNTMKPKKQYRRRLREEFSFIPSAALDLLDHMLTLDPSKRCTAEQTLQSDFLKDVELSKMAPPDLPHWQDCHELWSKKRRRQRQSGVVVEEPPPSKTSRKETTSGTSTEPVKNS
T1 sequence (O75909 whole entry partner, the tested form may be a part): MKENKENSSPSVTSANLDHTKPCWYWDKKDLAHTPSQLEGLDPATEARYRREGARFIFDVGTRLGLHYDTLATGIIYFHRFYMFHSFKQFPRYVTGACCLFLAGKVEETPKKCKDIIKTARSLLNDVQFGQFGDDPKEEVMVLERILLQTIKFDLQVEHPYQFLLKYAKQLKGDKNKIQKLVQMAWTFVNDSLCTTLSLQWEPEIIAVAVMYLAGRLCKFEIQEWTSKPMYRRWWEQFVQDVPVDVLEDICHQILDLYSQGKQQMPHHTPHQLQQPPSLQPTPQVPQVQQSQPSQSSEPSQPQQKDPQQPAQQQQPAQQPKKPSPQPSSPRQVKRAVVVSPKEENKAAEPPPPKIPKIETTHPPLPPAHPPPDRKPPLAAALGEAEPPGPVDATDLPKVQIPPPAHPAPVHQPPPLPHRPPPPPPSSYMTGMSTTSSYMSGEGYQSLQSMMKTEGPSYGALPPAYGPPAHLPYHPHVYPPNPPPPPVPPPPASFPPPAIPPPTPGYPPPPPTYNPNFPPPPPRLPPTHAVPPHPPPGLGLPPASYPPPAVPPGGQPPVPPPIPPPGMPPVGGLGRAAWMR
Procedure, shortened: as §1

A673 cells = experiment: Inhibition of proliferation of A673 cells (CyQUANT, 72 hour); type: cell-based, human; details: read-out: Inhibition of Proliferation of A673 Cells (calculated IC50)
Procedure, shortened: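 Read-out is CyQUANT after a 72 h proliferation period, following the kit protocol. Dilution series in 0.5-log steps over the stated 4 μM to […] range. Cells are A673 (human Ewing's sarcoma), grown in DMEM with 10% FBS and 1 mM sodium pyruvate at 37 °C under 5% CO2.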

CDK9/Cyclin T1 complex, sequence (P50750 whole entry): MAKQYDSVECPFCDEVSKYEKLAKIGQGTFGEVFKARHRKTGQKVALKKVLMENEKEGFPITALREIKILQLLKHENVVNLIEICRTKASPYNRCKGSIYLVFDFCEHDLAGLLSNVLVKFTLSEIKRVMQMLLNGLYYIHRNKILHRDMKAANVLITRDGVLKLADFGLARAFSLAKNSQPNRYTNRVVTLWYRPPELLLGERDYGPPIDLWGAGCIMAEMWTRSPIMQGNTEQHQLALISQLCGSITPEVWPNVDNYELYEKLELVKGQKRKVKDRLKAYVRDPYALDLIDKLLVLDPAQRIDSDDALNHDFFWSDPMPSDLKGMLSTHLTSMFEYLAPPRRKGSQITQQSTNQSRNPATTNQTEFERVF
CDK9/Cyclin T1 complex, sequence (O60563 whole entry partner): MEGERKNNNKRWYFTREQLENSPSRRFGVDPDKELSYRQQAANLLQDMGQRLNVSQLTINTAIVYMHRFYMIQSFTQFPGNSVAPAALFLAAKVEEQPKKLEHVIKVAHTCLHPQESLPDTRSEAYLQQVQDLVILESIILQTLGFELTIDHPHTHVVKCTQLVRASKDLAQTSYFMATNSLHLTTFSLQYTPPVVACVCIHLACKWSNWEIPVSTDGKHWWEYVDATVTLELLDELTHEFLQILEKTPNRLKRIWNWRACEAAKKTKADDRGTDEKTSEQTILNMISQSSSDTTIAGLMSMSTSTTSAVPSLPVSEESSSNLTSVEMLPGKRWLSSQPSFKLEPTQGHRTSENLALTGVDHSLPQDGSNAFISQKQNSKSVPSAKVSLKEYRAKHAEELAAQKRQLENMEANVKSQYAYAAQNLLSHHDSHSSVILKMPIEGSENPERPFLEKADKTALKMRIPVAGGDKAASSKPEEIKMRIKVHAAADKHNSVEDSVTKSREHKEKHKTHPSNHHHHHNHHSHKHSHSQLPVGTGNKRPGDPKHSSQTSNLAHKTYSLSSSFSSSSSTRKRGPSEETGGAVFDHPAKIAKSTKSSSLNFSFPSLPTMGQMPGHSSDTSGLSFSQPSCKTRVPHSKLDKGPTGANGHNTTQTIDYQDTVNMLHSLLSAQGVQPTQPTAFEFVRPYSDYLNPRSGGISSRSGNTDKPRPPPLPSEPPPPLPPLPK

Row | SMILES | IC50 (CDK9/Cyclin T1 complex) | IC50 (CDK2/Cyclin E1 complex) | IC50 [1] | IC50 (HCC70 cells) | IC50 [2] | IC50 (A673 cells)
1 | CC1CCNCC1Nc1ncc(C(F)(F)F)c(-c2c[nH]c3ccccc23)n1 (stereo not drawn) [Compound 285] | ≥ 5000 nM | ≥ 5000 nM | 200 to 5000 nM | < 100 nM | ≥ 5000 nM | < 20 nM
2 | CCS(=O)(=O)c1cccc2c(-c3nc(N[C@H]4CCCNC4)ncc3C(F)(F)F)c[nH]c12 [Compound 286] | 200 to 5000 nM | 200 to 5000 nM | < 20 nM | 1000 to 5000 nM | 200 to 5000 nM | 200 to 5000 nM
3 | CCc1cnc(NC2CCCNC2)nc1-c1c[nH]c2nc(C#N)ccc12 (stereo not drawn) [Compound 287] | ≥ 5000 nM | ≥ 5000 nM | < 20 nM | 100 to 1000 nM | ≥ 5000 nM | 20 to 200 nM
4 | FC(F)n1ccc(-c2ccc3c(-c4nc(NC5CCCNC5)ncc4C(F)(F)F)c[nH]c3c2)n1 (stereo not drawn) [Compound 289] | 200 to 5000 nM | 200 to 5000 nM | 20 to 200 nM | 100 to 1000 nM | 200 to 5000 nM | 20 to 200 nM
5 | FC(F)n1cc(-c2ccc3c(-c4nc(NC5CCCNC5)ncc4C(F)(F)F)c[nH]c3c2)cn1 (stereo not drawn) [Compound 290] | 200 to 5000 nM | 200 to 5000 nM | 20 to 200 nM | 100 to 1000 nM | 200 to 5000 nM | 20 to 200 nM
6 | FC(F)(F)c1cnc(NC2CCCNC2)nc1-c1c[nH]c2cc(-c3cc[nH]n3)ccc12 (stereo not drawn) [Compound 291] | 200 to 5000 nM | 200 to 5000 nM | < 20 nM | 100 to 1000 nM | 200 to 5000 nM | 20 to 200 nM
7 | N#CC1CCN(C(=O)c2ccc3c(-c4nc(NC5CCCNC5)ncc4C(F)(F)F)c[nH]c3c2)C1 (stereo not drawn) [Compound 292] | 200 to 5000 nM | 200 to 5000 nM | < 20 nM | 100 to 1000 nM | 200 to 5000 nM | 20 to 200 nM
